Experimental data from patent US20150216848A1, “COMPOUNDS THAT INHIBIT TAU PHOSPHORYLATION” (THE TRANSLATIONAL GENOMICS RESEARCH INSTITUTE, priority 2010, published 2015).
“Also recorded” adds a separate entry of the source. Read-outs that look alike come from different tables or passages of the source.

Experiments:
recombinant human DYRK1A = molecular target: T1, recombinant human DYRK1A (Homo sapiens, UniProt Q13627); assay type: biochemical; conditions: for IC50: recombinant DYRK1A and 4R2N tau, 1 mM ATP, read-out: IC50, inhibition of DYRK1A dependent tau phosphorylation at serine 396
T1 construct: purchased Invitrogen (DYRK1A); SignalChem (tau)

[1] = tested on: total tau and phosphorylated tau (12E8 pS262/pS356, pT231, pS396) in 4R0N tau overexpressing H4 neuroglioma cells; assay: Cell culture tau assay (Western blot of total and phosphorylated tau); assay type: cell-based; conditions: for phosphorylated forms of tau (12E8 pS262/pS356, pT231, pS396): H4-tau cells, 80 nM, 800 nM and 8 μM, 96 hours; for effects in the cell-based tau assay: FIG. 3; for total tau and phosphorylated forms of tau: doses up to 500 μM
H4 neuroglioma cell line = assay: Viability (toxicity) assay, alamar Blue; assay type: cell-based; conditions: for effect on the viability of the cells at the lower doses: 9-ethylharmine 1 μM, harmine 0.8 μM; for IC50: read-out: IC50 for viability (toxicity)
[2] = tested on: spatial working memory and short-term memory retention; assay: Delayed-match-to-sample asymmetrical 3-choice task; assay type: in vivo, rat
From the text: (§1) Twenty-six 17 month-old Fischer-344 male rats raised at the National Institute on Aging colony at Harlan Laboratories (Indianapolis, Ind.) were used in the study. After arrival, rats were pair-housed, had food and water ad-lib, and were maintained on a 12-h light/dark cycle. Procedures were approved by the Institutional Animal Care and Use Committee, and adhered to National Institutes of Health standards.
(§2) Rats were randomly divided into three treatment groups (n at start of study, m included in final behavioral analyses): vehicle (10, 10), low-Harmine 1 mg/kg (10, 10), or high-Harmine 5 mg/kg (10, 6). […]
Spatial working memory and short-term memory retention were evaluated using a win-stay water-escape DMS asymmetrical place-learning task. […] Entry into any non-platformed arm was counted as an error. An arm entry was counted when the tip of a rat's snout reached a mark on the outside of the arm (not visible from the inside of the maze; 11 cm into the arm).
In an initial analysis, Harmine-low and Harmine-high groups were compared. […] DMS data were analyzed with an omnibus ANOVA with treatment as the between groups variable and total number of errors for each trial as repeated measures. MM data were analyzed with an omnibus ANOVA with treatment as the between groups variable and swim distance (cm) to the platform as repeated measures. […]

[3] = tested on: motor and visual competence; assay: Visible platform task and observed motor side effects; assay type: in vivo, rat; conditions: rats
From the text: as §1
Rats were randomly divided into three treatment groups (n at start of study, m included in final behavioral analyses): vehicle (10, 10), low-Harmine 1 mg/kg (10, 10), or high-Harmine 5 mg/kg (10, 6). Nine days after arrival, animals started receiving daily subcutaneous injections at a volume of 1 ml/kg. […] Behavioral testing began after the second injection day, testing commenced approximately 30-45 minutes after injections and lasted for 6-8 hours. Animals were assigned semi-randomly to one of three testing squads of 10 animals each balanced with respect to treatment group.
Four days after MM testing, motor and visual competence were evaluated using the visible platform task. This was an adaptation of the cue-navigation version of the spatial MM task previously used to dissociate visual and motor acuity from place memory. This task was ideal due to its similarity to other spatial water-maze tasks with respect to motor and visual requirements, differing only in that animals are not required to associate the location of the platform with distal cues. […]
(§3) In an initial analysis, Harmine-low and Harmine-high groups were compared. […] DMS data were analyzed with an omnibus ANOVA with treatment as the between groups variable and total number of errors for each trial as repeated measures. MM data were analyzed with an omnibus ANOVA with treatment as the between groups variable and swim distance (cm) to the platform as repeated measures. […] Visible platform data were further analyzed using a regression analysis with testing squad (1-3) as the predictor and mean escape latency across trials 1-6 as the criterion. […]

spatial reference memory = assay: Morris water maze; assay type: in vivo, rat; conditions: rats
From the text: as §1, §2
Spatial reference memory was evaluated using the Morris Maze. […] A video camera and tracking system tracked and measured each rat's swim pathway.
as §3

Compound: CCn1c2cc(OC)ccc2c2ccnc(C)c21 [9-ethyl harmine]
- IC50 (recombinant human DYRK1A): 0.4 µM
- reducing total tau and phosphorylated tau levels ([1]; 1 μM): significant reductions
- reducing total tau and phosphorylated tau levels ([1]; dose of 10 μM): significant effects
- effect on the viability of the cells at the lower doses (H4 neuroglioma cell line): no detectable effect
- IC50 (H4 neuroglioma cell line): 9 µM

Compound: COc1ccc2c(c1)[nH]c1c(C)nccc12 [harmine]
- total errors on the DMS task, testing block 4 (Days 8-9), trials 2-6 ([2]; 17 month-old Fischer-344 male rats, 1 and 5 mg/kg daily subcutaneous, groups combined, vs vehicle, P=0.03): enhanced working and short-term memory; also recorded: fewer total errors
- DMS task, testing blocks 1, 2 or 3 ([2]; rats, 1 and 5 mg/kg s.c. combined): no main effects
- decrease of mean escape latency with each squad tested (visible platform task) ([3]; Harmine-high 5 mg/kg s.c.): roughly 11.6 seconds
- duration of motor impairments after injections ([3]; Harmine-high 5 mg/kg s.c.): 1 to 2 h
- motoric effects ([3]; harmine treatment): obvious motoric effects
- Morris maze distance swam to the platform, days 1-3 (spatial reference memory; 1 and 5 mg/kg s.c.): no Harmine treatment main effects
- effect on spatial reference memory (spatial reference memory; doses tested 1 and 5 mg/kg s.c.): no significant effect
- reducing total tau and phosphorylated tau levels ([1]; 0.8 μM): significant reductions
- levels of total tau protein ([1]; 0.8 μM and 8 μM): reduce the levels of total tau protein
- phosphorylated forms of tau (12E8 pS262/pS356, pT231, pS396) [1]: dose-dependent reduction
- phosphorylated forms of tau (12E8 pS262/pS356, pT231, pS396) ([1]; listed as Harmine): reduced the expression of each phospho-tau species tested
- reducing total tau and phosphorylated tau levels ([1]; dose of 10 μM): significant effects
- effect on the viability of the cells at the lower doses (H4 neuroglioma cell line): no detectable effect
- IC50 (H4 neuroglioma cell line): 12 µM

Compound: Cc1nccc2c1[nH]c1ccccc12 [harmane]
- affinity relative to harmine in the in vitro phosphorylation assay (recombinant human DYRK1A): more than an order of magnitude lower in affinity than harmine
- effects in the cell-based tau assay [1]: relatively muted effects
- IC50 (H4 neuroglioma cell line): 32 µM

Compound: COc1ccc2c3c([nH]c2c1)C(C)=NCC3 [harmaline]
- affinity relative to harmine in the in vitro phosphorylation assay (recombinant human DYRK1A): more than an order of magnitude lower in affinity than harmine
- effects in the cell-based tau assay [1]: relatively muted effects
- IC50 (H4 neuroglioma cell line): 56 µM

Compound: c1ccc2c(c1)[nH]c1cnccc12 [norharmane]
- affinity relative to harmine in the in vitro phosphorylation assay (recombinant human DYRK1A): more than an order of magnitude lower in affinity than harmine
- effects in the cell-based tau assay [1]: relatively muted effects
- IC50 (H4 neuroglioma cell line): 95 µM

Compound: O=C(NCCN1CCOCC1)c1ccc(Cl)cc1 [moclobemide, reference compound]
- total tau and phosphorylated forms of tau [1]: did not affect tau phosphorylation
- total tau and phosphorylated forms of tau ([1]; listed as Moclobemide): did not reduce levels

Compound: harmol
- IC50 (recombinant human DYRK1A): 0.09 µM
- reducing total tau and phosphorylated tau levels ([1]; dose of 10 μM): significant effects
- IC50 (H4 neuroglioma cell line; H4 neuroglioma cell line, alamar Blue, fresh drug every 24 hours for 4 days): 18 µM
